Results reported in ChEMBL document CHEMBL5212743, “Selectivity Literature for EUbOPEN Chemogenomics Library wave 3” (2023).
pKd, pKi: −log10 of the molar value.

Assays:
Activated CDC42 kinase 1 = Activated CDC42 kinase 1 (Homo sapiens, UniProt Q07912); assay: Selectivity interaction (Z’-LYTE assay (SelectScreen Invitrogen)) EUB0000690a TNK2
[1] = biological target: Leukocyte tyrosine kinase receptor (Homo sapiens, UniProt P29376); assay: Selectivity interaction (Z’-LYTE assay (SelectScreen Invitrogen)) EUB0000690a LTK
[2] = biological target: Epidermal growth factor receptor (Homo sapiens, UniProt P00533, L858R); assay: (§1) Selectivity interaction (Z’-LYTE assay (SelectScreen Invitrogen)) EUB0000690a EGFR
[3] = biological target: Epidermal growth factor receptor (Homo sapiens, UniProt P00533, T790M); assay: as §1
Focal adhesion kinase 1 = Focal adhesion kinase 1 (Homo sapiens, UniProt Q05397); assay: Selectivity interaction (Z’-LYTE assay (SelectScreen Invitrogen)) EUB0000690a PTK2
[4] = biological target: Protein-tyrosine kinase 2-beta (Homo sapiens, UniProt Q14289); assay: Selectivity interaction (Z’-LYTE assay (SelectScreen Invitrogen)) EUB0000690a PTK2B
[5] = biological target: Tyrosine-protein kinase Fer (Homo sapiens, UniProt P16591); assay: Selectivity interaction (Z’-LYTE assay (SelectScreen Invitrogen)) EUB0000690a FER
Sequence of Tyrosine-protein kinase Fer (P16591 whole entry): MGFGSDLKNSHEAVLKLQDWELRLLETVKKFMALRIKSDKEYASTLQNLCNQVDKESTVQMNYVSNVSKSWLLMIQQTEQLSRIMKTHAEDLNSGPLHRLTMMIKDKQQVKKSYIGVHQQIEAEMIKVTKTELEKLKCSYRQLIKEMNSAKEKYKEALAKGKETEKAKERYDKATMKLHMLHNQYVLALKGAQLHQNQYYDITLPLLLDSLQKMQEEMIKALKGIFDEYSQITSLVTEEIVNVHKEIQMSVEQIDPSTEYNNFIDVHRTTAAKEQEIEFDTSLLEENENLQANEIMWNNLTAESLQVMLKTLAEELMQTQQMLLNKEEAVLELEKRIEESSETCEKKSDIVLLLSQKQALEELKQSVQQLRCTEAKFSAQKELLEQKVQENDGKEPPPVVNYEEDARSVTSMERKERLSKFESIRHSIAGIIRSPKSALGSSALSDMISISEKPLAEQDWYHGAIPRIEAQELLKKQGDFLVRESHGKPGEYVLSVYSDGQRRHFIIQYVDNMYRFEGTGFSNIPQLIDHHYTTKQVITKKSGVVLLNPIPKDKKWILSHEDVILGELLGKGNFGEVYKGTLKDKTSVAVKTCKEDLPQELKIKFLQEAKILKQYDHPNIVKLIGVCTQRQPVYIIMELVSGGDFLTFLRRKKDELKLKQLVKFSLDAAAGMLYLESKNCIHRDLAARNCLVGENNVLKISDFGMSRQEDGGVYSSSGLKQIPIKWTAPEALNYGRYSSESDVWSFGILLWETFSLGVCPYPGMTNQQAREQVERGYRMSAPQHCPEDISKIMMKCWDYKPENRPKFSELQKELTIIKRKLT

[6] = biological target: Tyrosine-protein kinase Fes/Fps (Homo sapiens, UniProt P07332); assay: Selectivity interaction (Z’-LYTE assay (SelectScreen Invitrogen)) EUB0000690a FES
[7] = biological target: Tyrosine-protein kinase JAK2 (Homo sapiens, UniProt O60674); assay: Selectivity interaction (Z’-LYTE assay (SelectScreen Invitrogen)) EUB0000690a JAK2
[8] = biological target: Tyrosine-protein kinase FRK (Homo sapiens, UniProt P42685); assay: Selectivity interaction (Z’-LYTE assay (SelectScreen Invitrogen)) EUB0000690a FRK
[9] = biological target: High affinity nerve growth factor receptor (Homo sapiens, UniProt P04629); assay: Selectivity interaction (Z’-LYTE assay (SelectScreen Invitrogen)) EUB0000690a NTRK1
[10] = biological target: NT-3 growth factor receptor (Homo sapiens, UniProt Q16288); assay: Selectivity interaction (Z’-LYTE assay (SelectScreen Invitrogen)) EUB0000690a NTRK3
[11] = biological target: T1, Muscarinic acetylcholine receptor M2 (Homo sapiens) (UniProt P08172); assay: Selectivity interaction (CEREP panel (nuclear receptors, ion channels, and […] other enzymes, including 10 kinases, 9 proteases, and 5 phosphodiesterases)) EUB0000195c CHRM2; details: at 10 µM
T1 sequence (whole entry): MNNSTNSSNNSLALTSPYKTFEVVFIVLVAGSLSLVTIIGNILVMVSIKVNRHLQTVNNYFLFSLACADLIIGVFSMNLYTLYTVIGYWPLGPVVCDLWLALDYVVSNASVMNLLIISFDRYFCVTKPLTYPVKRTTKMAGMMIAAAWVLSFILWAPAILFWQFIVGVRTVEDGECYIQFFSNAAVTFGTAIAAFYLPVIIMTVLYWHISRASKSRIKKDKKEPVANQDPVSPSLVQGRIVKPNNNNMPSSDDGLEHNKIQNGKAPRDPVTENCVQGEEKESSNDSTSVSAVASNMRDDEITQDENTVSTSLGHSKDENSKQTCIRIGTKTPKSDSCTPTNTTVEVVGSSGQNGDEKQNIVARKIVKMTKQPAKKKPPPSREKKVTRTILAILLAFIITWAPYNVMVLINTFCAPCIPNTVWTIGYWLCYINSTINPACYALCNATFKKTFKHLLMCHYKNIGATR

[12] = biological target: T2, Alpha-1A adrenergic receptor (Homo sapiens) (UniProt P35348); assay: Selectivity interaction (CEREP panel (nuclear receptors, ion channels, and […] other enzymes, including 10 kinases, 9 proteases, and 5 phosphodiesterases)) EUB0000195c ADRA1A; details: at 10 µM
T2 sequence (whole entry): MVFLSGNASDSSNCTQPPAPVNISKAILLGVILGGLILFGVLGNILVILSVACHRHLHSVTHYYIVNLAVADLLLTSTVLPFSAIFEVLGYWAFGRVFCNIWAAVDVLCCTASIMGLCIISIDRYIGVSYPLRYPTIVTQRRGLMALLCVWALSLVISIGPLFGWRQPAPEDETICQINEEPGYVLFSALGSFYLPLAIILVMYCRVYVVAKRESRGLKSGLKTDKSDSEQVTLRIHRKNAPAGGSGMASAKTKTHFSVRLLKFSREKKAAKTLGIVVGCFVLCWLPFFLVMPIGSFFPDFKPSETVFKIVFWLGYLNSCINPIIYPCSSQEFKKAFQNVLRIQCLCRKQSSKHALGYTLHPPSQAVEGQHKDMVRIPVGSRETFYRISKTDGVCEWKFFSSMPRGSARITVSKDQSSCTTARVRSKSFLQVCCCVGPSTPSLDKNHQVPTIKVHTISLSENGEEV

[13] = biological target: Bromodomain-containing protein 2 (Homo sapiens) (UniProt P25440); assay: Selectivity interaction (Bromodomain panel (DSF assay)) EUB0000195c BRD2
[14] = biological target: Bromodomain-containing protein 3 (Homo sapiens) (UniProt Q15059); assay: Selectivity interaction (Bromodomain panel (DSF assay)) EUB0000195c BRD3
Sequence of Bromodomain-containing protein 3 (Homo sapiens) (Q15059 2-726 limits assumed): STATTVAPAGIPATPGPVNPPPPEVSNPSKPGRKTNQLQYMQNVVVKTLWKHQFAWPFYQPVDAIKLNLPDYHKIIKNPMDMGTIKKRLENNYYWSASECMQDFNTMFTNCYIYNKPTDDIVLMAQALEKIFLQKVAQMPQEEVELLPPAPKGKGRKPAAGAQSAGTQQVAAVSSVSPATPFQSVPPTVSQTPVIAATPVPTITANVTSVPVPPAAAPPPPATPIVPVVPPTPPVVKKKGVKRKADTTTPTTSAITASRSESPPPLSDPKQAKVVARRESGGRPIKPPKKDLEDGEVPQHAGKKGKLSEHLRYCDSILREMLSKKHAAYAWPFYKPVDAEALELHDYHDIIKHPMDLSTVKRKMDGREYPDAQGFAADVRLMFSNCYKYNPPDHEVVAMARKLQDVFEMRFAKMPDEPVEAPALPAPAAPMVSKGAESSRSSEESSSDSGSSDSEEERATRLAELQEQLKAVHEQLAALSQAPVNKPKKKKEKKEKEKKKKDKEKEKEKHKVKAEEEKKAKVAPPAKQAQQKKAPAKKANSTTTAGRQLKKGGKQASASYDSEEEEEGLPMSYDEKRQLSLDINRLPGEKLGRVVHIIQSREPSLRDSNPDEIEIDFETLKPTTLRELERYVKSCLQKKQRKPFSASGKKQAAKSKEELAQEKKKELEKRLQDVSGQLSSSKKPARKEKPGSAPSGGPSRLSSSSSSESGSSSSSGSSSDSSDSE

[15] = biological target: T3, Bromodomain-containing protein 4 (Homo sapiens, UniProt O60885); assay: (§2) Selectivity interaction (Bromodomain panel (DSF assay)) EUB0000195c BRD4
[16] = biological target: T3, Bromodomain-containing protein 4; assay: as §2; remark: listed apart in the source
[17] = biological target: T3, Bromodomain-containing protein 4; assay: Selectivity interaction (ITC) EUB0000195c BRD4
[18] = biological target: Histone acetyltransferase p300 (Homo sapiens) (UniProt Q09472); assay: Selectivity interaction (DSF assay) EUB0000195c EP300
CREB-binding protein [19] = biological target: T4, CREB-binding protein (Homo sapiens, UniProt Q92793)
CREB-binding protein [20] = biological target: T4, CREB-binding protein; remark: listed apart in the source
Target sequence in this assay (Q92793 2-2442 limits assumed): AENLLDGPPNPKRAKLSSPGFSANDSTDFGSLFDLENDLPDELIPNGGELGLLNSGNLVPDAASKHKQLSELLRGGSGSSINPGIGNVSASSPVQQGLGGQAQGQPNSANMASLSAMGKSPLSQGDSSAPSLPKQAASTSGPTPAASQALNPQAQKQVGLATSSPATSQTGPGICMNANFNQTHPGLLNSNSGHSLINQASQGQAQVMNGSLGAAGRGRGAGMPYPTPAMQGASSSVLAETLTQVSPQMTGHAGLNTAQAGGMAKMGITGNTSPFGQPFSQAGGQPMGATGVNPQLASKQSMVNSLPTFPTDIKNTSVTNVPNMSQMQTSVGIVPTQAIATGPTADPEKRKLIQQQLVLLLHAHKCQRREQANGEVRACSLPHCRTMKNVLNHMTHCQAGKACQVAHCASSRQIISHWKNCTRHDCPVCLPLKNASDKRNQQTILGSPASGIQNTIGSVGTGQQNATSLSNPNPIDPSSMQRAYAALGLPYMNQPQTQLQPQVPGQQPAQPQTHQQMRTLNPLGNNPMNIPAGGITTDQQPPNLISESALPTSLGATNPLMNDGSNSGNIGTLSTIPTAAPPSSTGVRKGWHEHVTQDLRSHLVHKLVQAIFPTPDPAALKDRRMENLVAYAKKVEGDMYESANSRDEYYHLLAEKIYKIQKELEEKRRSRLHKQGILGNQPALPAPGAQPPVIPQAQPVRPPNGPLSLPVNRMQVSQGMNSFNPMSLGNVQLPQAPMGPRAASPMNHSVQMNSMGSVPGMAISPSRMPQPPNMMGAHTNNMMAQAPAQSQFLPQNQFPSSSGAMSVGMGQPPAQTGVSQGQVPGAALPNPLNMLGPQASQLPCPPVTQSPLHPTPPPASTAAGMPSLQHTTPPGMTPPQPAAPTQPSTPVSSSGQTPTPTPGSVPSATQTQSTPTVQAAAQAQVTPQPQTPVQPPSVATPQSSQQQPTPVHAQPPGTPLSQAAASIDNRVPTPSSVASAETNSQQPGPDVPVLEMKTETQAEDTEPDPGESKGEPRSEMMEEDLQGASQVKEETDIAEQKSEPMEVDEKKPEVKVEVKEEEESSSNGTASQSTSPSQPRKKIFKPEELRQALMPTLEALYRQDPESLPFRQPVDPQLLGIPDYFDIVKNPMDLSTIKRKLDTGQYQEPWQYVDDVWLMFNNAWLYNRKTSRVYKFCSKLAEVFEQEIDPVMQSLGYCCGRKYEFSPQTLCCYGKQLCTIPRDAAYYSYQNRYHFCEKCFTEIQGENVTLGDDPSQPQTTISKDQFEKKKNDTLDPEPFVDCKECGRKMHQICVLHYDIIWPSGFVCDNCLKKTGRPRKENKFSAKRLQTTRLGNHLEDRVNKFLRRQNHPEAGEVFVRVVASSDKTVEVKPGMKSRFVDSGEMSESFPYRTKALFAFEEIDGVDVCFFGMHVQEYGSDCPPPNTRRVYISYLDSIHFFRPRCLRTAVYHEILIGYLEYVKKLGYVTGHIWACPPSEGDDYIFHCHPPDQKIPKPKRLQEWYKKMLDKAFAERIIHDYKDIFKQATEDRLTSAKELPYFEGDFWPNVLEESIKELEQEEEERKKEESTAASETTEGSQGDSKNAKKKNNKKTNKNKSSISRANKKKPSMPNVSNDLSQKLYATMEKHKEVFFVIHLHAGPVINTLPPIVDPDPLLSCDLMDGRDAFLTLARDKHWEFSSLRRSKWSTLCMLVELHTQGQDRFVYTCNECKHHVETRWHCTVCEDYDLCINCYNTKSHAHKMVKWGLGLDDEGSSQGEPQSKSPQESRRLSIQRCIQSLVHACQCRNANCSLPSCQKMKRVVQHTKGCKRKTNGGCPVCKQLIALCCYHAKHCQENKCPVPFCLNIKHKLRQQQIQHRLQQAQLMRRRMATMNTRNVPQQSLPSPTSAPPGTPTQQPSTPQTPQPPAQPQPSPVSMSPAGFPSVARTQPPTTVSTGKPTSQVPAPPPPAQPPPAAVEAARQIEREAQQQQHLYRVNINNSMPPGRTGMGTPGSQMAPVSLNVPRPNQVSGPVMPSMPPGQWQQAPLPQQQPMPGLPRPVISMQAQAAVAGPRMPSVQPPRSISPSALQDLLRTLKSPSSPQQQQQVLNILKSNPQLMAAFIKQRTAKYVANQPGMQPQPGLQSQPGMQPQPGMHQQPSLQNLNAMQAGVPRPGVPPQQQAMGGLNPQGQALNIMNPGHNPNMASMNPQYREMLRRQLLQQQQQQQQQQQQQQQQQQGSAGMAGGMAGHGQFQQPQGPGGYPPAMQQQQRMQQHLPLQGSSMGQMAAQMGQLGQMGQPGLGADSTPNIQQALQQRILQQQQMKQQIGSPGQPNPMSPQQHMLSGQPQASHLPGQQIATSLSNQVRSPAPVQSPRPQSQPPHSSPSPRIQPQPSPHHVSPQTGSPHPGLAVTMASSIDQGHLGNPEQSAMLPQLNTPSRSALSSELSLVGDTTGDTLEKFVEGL

[21] = biological target: Dual specificity protein kinase CLK2 (Homo sapiens, UniProt P49760); assay: Selectivity interaction (NanoBRET assay (HEK293T cells)) EUB0000009b CLK2
[22] = biological target: Dual specificity tyrosine-phosphorylation-regulated kinase 1B (Homo sapiens, UniProt Q9Y463); assay: Selectivity interaction (NanoBRET assay (HEK293T cells)) EUB0000009b DYRK1B
[23] = biological target: Dual specificity tyrosine-phosphorylation-regulated kinase 2 (Homo sapiens, UniProt Q92630); assay: Selectivity interaction (NanoBRET assay (HEK293T cells)) EUB0000009b DYRK2
Sequence of Dual specificity tyrosine-phosphorylation-regulated kinase 2 (Q92630 whole entry): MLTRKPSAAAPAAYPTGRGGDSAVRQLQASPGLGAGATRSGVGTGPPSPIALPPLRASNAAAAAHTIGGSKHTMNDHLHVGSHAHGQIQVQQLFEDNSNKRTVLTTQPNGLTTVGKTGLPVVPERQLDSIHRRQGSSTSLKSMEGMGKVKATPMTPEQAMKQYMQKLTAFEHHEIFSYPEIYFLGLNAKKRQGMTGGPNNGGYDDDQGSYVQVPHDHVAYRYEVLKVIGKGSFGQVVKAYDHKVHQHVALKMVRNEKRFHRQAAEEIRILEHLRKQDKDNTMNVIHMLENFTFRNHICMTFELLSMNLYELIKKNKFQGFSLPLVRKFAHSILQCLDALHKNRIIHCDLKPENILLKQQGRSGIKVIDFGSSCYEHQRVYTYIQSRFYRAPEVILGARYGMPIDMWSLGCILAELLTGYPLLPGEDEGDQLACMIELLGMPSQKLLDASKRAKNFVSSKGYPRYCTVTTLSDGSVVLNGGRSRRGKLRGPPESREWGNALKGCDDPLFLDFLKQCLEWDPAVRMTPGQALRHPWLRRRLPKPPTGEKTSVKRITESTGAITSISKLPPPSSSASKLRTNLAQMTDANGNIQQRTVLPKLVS

[24] = biological target: Dual specificity tyrosine-phosphorylation-regulated kinase 1A (Homo sapiens, UniProt Q13627); assay: Selectivity interaction (NanoBRET assay (HEK293T cells)) EUB0000009b DYRK1A
[25] = biological target: Sigma non-opioid intracellular receptor 1 (Homo sapiens, UniProt Q99720); assay: Selectivity interaction (GPCR panel (PDSP screen)) EUB0000103c SIGMAR1
Sequence of Sigma non-opioid intracellular receptor 1 (Q99720 whole entry): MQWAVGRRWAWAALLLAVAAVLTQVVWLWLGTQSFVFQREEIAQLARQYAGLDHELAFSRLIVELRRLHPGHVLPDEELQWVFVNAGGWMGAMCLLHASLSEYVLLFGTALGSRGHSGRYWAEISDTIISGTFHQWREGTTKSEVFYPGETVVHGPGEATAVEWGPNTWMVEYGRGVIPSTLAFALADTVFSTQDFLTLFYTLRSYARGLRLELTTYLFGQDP

[26] = biological target: Sigma intracellular receptor 2 (Homo sapiens, UniProt Q5BJF2); assay: Selectivity interaction (GPCR panel (PDSP screen)) EUB0000103c TMEM97
[27] = biological target: Sodium channel protein type 2 subunit alpha (Homo sapiens, UniProt Q99250); details: at 10 µM
[28] = biological target: RNA 5'-monophosphate methyltransferase (Homo sapiens) (UniProt Q7Z5W3); details: at 50 µM
Sequence of RNA 5'-monophosphate methyltransferase (Homo sapiens) (Q7Z5W3 whole entry): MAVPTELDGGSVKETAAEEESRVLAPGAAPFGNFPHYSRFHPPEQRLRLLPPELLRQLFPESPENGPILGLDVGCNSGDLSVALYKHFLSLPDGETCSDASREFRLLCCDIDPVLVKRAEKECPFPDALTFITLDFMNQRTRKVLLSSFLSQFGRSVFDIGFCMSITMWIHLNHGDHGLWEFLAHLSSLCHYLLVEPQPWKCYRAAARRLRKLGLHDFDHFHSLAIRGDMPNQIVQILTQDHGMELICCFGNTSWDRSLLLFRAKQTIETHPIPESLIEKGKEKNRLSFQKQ

[29] = biological target: Histone-arginine methyltransferase CARM1 (Homo sapiens) (UniProt Q86X55)
[30] = biological target: Protein arginine N-methyltransferase 6 (Homo sapiens, UniProt Q96LA8)
[31] = biological target: T3, Bromodomain-containing protein 4; assay: Selectivity interaction (ITC) EUB0000205c BRD4
[32] = biological target: T5, Adenosine receptor A1 (Homo sapiens) (UniProt P30542); details: at 10 µM
T5 sequence (whole entry): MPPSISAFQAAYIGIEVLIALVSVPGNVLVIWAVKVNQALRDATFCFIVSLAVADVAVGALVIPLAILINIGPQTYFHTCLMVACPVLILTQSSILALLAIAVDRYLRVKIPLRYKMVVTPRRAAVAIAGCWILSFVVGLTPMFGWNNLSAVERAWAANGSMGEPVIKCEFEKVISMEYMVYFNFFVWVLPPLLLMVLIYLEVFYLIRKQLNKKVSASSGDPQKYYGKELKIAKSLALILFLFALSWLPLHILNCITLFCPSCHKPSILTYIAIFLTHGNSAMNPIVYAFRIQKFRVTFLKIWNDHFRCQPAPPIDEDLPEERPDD

[33] = biological target: Kappa-type opioid receptor (Homo sapiens, UniProt P41145); details: at 10 µM
[34] = biological target: Sodium-dependent noradrenaline transporter (Homo sapiens, UniProt P23975); details: at 10 µM
[35] = biological target: Sodium-dependent dopamine transporter (Homo sapiens, UniProt Q01959); assay: Selectivity interaction (GPCR panel (PDSP screen)) EUB0000717a SLC6A3
[36] = biological target: T6, Cyclin-G-associated kinase (Homo sapiens) (UniProt O14976); assay: Selectivity interaction (KinomeScan (DiscoverX)) EUB0000717a GAK; details: at 1 µM
T6 sequence (whole entry): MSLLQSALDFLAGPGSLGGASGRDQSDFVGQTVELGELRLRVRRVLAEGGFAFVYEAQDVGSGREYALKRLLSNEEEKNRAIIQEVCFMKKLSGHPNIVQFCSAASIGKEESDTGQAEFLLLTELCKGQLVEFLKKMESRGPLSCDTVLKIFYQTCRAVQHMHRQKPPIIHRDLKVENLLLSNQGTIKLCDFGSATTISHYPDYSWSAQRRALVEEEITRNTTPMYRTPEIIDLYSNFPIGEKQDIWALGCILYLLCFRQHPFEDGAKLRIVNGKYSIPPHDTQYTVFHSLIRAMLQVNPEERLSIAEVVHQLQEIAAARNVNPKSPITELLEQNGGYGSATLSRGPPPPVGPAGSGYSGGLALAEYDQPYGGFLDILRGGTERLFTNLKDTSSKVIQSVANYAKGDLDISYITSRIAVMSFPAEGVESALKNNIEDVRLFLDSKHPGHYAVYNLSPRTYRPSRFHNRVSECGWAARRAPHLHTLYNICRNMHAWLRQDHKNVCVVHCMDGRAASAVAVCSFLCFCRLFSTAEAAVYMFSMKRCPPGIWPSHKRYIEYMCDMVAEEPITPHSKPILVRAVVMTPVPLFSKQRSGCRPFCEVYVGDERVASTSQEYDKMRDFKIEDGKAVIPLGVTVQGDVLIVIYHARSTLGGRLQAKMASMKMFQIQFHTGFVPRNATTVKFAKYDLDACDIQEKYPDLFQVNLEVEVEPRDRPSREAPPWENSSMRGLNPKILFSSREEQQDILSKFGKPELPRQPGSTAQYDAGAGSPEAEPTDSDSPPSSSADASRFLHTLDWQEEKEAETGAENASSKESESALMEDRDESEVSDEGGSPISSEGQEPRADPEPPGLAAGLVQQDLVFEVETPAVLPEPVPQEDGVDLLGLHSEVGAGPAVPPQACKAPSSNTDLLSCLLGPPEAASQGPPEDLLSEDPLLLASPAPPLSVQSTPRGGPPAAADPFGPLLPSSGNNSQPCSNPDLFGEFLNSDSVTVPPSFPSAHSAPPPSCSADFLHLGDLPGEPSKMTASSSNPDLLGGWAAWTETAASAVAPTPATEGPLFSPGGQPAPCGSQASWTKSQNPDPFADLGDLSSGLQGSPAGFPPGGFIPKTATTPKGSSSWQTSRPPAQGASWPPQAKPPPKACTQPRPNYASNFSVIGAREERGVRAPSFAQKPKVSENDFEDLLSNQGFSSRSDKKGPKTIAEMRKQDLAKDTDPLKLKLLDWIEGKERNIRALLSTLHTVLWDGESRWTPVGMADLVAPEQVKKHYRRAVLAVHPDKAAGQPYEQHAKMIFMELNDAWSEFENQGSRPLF

[37] = biological target: BMP-2-inducible protein kinase (Homo sapiens) (UniProt Q9NSY1); assay: Selectivity interaction (KinomeScan (DiscoverX)) EUB0000717a BMP2K; details: at 1 µM

SMILES: C[C@H]1Oc2cc(cnc2N)-c2c(nn(C)c2C#N)CN(C)C(=O)c2ccc(F)cc21 [LORLATINIB]
- pKi (Activated CDC42 kinase 1): 7.77
- pKi [1]: 8.57
- pKi [2]: 7.25
- pKi [3]: 6.50
- pKi (Focal adhesion kinase 1): 7.77
- pKi [4]: 7.85
- pKi [5]: 8.48
- pKi [6]: 8.22
- pKi [7]: 6.28
- pKi [8]: 7.28
- pKi [9]: 7.62
- pKi [10]: 7.34

SMILES: CCC(=O)N1CCOc2c(cc(-c3ccc(OC)c(OC)c3)cc2OC[C@H]2CCCN(C)C2)C1
- % of inhibition [11]: 67%
- % of inhibition [12]: 89%
- dTm [13]: 1.35 K
- dTm [14]: 1.55 K
- dTm [15]: 2.09 K
- dTm [16]: 0.58 K
- pKd [17]: < 4.70
- dTm [18]: 8.6 K
- pKd (CREB-binding protein [19]): 6.77
- dTm (CREB-binding protein [20]): 7.8 K

SMILES: Cn1cc(-c2ccc3occ(-c4ccccc4-c4ccccc4)c3n2)cn1
- pKi [21]: < 5.00
- pKi [22]: < 5.00
- pKi [23]: < 5.00
- pKi [24]: < 5.00

SMILES: CNCCN1CCC(OCc2ccccc2)CC1
- pKi [25]: 7.27
- pKi [26]: 6.24
- inhibition [27]: 31%
- % activity remaining [28]: 78%
- dTm [29]: 3.3 K
- dTm [30]: 11.3 K

SMILES: COc1cc(C#N)ccc1S(=O)(=O)Nc1ccc2c(c1)cc(C)c(=O)n2C
- pKd [31]: 5.41
- mean % of control [32]: 62%
- mean % of control [33]: 80%
- mean % of control [34]: 61%

SMILES: O=C1c2ccc(Nc3ccc(F)cc3F)cc2CCc2ccc(OC[C@H](O)CO)cc21 [Skepinone-L]
- pKi [35]: < 5.00
- % of control [36]: 53%
- % of control [37]: 37%
